What all share (assay type): functional
The nature of test [1]: Antioxidant activity in methanolic solution at 83 uM at 37 degC.
Test [2] in a line: Antioxidant activity assessed as inhibition of rate of formation of phosphatidylcholine hydroperoxides at 1.9 uM by phosphatidylcholine oxidation assay.
The nature of test [3]: Antioxidant activity assessed as inhibition of rate of formation of phosphatidylcholine hydroperoxides at 2.2 uM by phosphatidylcholine oxidation assay.

Active and inactive are the calls of the source. No cut-off for these calls is given here.

Turning to `C=C(C)CCC[C@@H](C)CCC[C@@H](C)CCC[C@]1(C)CCc2c(C)c(O)c(C)c(C)c2O1`, the outcome in test [1] and in test [2] was Active.

Regarding `Cc1c(C)c2c(c(C)c1O)CC[C@@](C)(CCC[C@H](C)CCC[C@H](C)CCCC(C)C)O2`, the result in test [1] and in test [3] was Active.

Values taken from ChEMBL document CHEMBL1142553, “A new vitamin E (alpha-tocomonoenol) from eggs of the Pacific salmon Oncorhynchus keta” (J Nat Prod, 1999).
